Results taken from patent US20050222259A1, “Methods of activating PPAR-alpha nuclear receptors in mammals” (priority 2004, published 2005).

Experiment: oral application of conjugated fatty acids: appetite, satiety and food intake
Format: in vivo
Settings: for appetite-reducing effect compared with other CLA isomers and non-conjugated linoleic acid: comparison of isomers

Compound	appetite-reducing effect compared with other CLA isomers and non-conjugated linoleic acid	appetite-reducing effect compared with other CLA isomers and non-conjugated linoleic acid (listed as cis-9,trans-11 isomer of conjugated linoleic acid)	effect on appetite, satiety and food intake (oral application)
CCCCCC/C=C/C=C\CCCCCCCC(=O)O (single isomer, unassigned) [cis-9,trans-11 CLA-isomer, cis-9,trans-11 isomer of conjugated linoleic acid]	most efficacious in inhibiting appetite	more pronounced	
conjugated linoleic acid [CLA]			reduction of appetite
